The first experiment concerns HCV pseudoparticles (genotype 1a HCV E1 and E2 envelope, H77C isolate). Nature of the experiment: microbe, parasite or virus in culture. Format: cell-based. As to conditions: Hepatitis C virus, Huh-7, 48 h, HCV pseudoparticles (genotype 1a, H77C) in Huh7 cells; average of duplicate; luciferase 2 days after infection.
Compound `O=C(NCCNC(=O)c1ccc(Nc2nc(NC3(c4ccc(Cl)cc4)CC3)nc(OCC(F)(F)F)n2)cc1)C(=O)Nc1ccc(F)cc1` [Compound 3373] returned a concentration giving a half-maximal response (EC50) of 0.052 nM.
On the same count and under the same terms, for `Cn1ccnc1NC(=O)C(=O)NCC(C)(C)CNC(=O)c1ccc(Nc2nc(NC3(c4ccc(Cl)cc4)CC3)nc(OCC(F)(F)F)n2)cc1` [Compound 3379] the value was 0.14 nM.
Same read-out and setting: next, `COc1cc(Nc2nc(NC3(c4ccc(Cl)cc4)CC3)nc(OCC(F)(F)F)n2)ccc1C(=O)NCC(C)(C)CNC(=O)C(N)=O` [Compound 3387]: 0.068 nM; `CC(C)(CNC(=O)C(N)=O)CNC(=O)c1ccc(Nc2nc(NC3(c4ccc(Cl)cc4)CC3)nc(OCC(F)(F)F)n2)cc1F` [Compound 3388, N^1-(3-(4-((4-((1-(4-chlorophenyl)cyclopropyl)amino)-6-(2,2,2-trifluoroethoxy)-1,3,5-triazin-2-yl)amino)-2-fluorobenzamido)-2,2-dimethylpropyl)oxalamide]: 0.013 nM.
As to `O=C(NCCCCNC(=O)c1ccc(Nc2nc(NC3(c4ccc(Cl)cc4)CC3)nc(OCC(F)(F)F)n2)cc1)C(=O)Nc1ccc(F)cc1F` [Compound 3397], the EC50 worked out at 0.082 nM.
On the same count and under the same terms, next, `O=C(NCCCCNC(=O)c1ccc(Nc2nc(NC3(c4ccc(Cl)cc4)CC3)nc(OCC(F)(F)F)n2)cc1)C(=O)N1CCc2ccccc2C1` [Compound 3402]: 0.2 nM; `Cc1ccc(NC(=O)C(=O)N(C)CCCN(C)C(=O)c2ccc(Nc3nc(NC4(c5ccc(Cl)cc5)CC4)nc(OCC(F)(F)F)n3)cc2)cc1` [Compound 3406]: 1.91 nM; `Cc1ccc(NC(=O)C(=O)NC(C)(C)CNC(=O)c2ccc(Nc3nc(NC4(c5ccc(Cl)cc5)CC4)nc(OCC(F)(F)F)n3)cc2)cc1` [Compound 3417]: 0.032 nM.

Still in this experiment, the particulars now being: Hepatitis C virus, Huh-7, read-out: Activity (EC50 class), HCV pseudoparticles (genotype 1a, H77C) in Huh7 cells; EC50 expressed as class A/B.
Take `O=C(NCc1ccc(F)cc1)C(=O)NCC(O)CNC(=O)c1ccc(Nc2nc(NC3(c4ccc(Cl)cc4)CC3)nc(OCC(F)(F)F)n2)cc1` (centres unmarked) [Compound 3368]: the EC50 lay in the range of 0.01 to 10 nM.
Same read-out and setting: for `O=C(NCCNC(=O)c1ccc(Nc2nc(NC3(c4ccc(Cl)cc4)CC3)nc(OCC(F)(F)F)n2)cc1)C(=O)Nc1cccc(F)c1` [Compound 3369] the value was 0.01 to 10 nM; for `O=C(NCCNC(=O)c1ccc(Nc2nc(NC3(c4ccc(Cl)cc4)CC3)nc(OCC(F)(F)F)n2)cc1)C(=O)NCc1ccc(F)cc1` [Compound 3370], 0.01 to 10 nM.
The same measure, in the same setting: for `Cc1ccc(NC(=O)C(=O)NCCNC(=O)c2ccc(Nc3nc(NC4(c5ccc(Cl)cc5)CC4)nc(OCC(F)(F)F)n3)cc2)cc1` [Compound 3371] the value was 0.01 to 10 nM.
Same read-out and setting: next, `Cc1cc(NC(=O)C(=O)NCCNC(=O)c2ccc(Nc3nc(NC4(c5ccc(Cl)cc5)CC4)nc(OCC(F)(F)F)n3)cc2)no1` [Compound 3372]: 0.01 to 10 nM; `O=C(NCCNC(=O)c1ccc(Nc2nc(NC3(c4ccc(Cl)cc4)CC3)nc(OCC(F)(F)F)n2)cc1)C(=O)Nc1ccc(F)cc1` [Compound 3373]: 0.01 to 10 nM; `CC(C)(CNC(=O)C(=O)Nc1ccc(C#N)c(Cl)c1)CNC(=O)c1ccc(Nc2nc(NC3(c4ccc(Cl)cc4)CC3)nc(OCC(F)(F)F)n2)cc1` [Compound 3374]: 0.01 to 10 nM.
On to `CC(C)(CNC(=O)C(=O)Nc1ccccc1C(N)=O)CNC(=O)c1ccc(Nc2nc(NC3(c4ccc(Cl)cc4)CC3)nc(OCC(F)(F)F)n2)cc1` [Compound 3375], for which the 50% effective concentration (EC50) was in the range of 0.01 to 10 nM.
Still for that read-out and setting: next, `CC(C)(CNC(=O)C(=O)Nc1nc2ccccc2s1)CNC(=O)c1ccc(Nc2nc(NC3(c4ccc(Cl)cc4)CC3)nc(OCC(F)(F)F)n2)cc1` [Compound 3376]: 0.01 to 10 nM.
On to `CC(=O)c1ccccc1NC(=O)C(=O)NCC(C)(C)CNC(=O)c1ccc(Nc2nc(NC3(c4ccc(Cl)cc4)CC3)nc(OCC(F)(F)F)n2)cc1` [Compound 3377], for which the concentration for a half-maximal effect (EC50) was 0.01 to 10 nM.
With `Cc1ccc(NC(=O)C(=O)NCC(C)(C)CNC(=O)c2ccc(Nc3nc(NC4(c5ccc(Cl)cc5)CC4)nc(OCC(F)(F)F)n3)cc2)c(Cl)c1` [Compound 3378], the concentration for a half-maximal effect (EC50) was 0.01 to 10 nM.
With `Cn1ccnc1NC(=O)C(=O)NCC(C)(C)CNC(=O)c1ccc(Nc2nc(NC3(c4ccc(Cl)cc4)CC3)nc(OCC(F)(F)F)n2)cc1` [Compound 3379], the EC50 was in the range of 0.01 to 10 nM.
Still for that read-out and setting: for `NC(=O)C(=O)NCCNC(=O)c1ccc(Nc2nc(NC3(c4ccc(Cl)cc4)CC3)nc(OCC(F)(F)F)n2)cc1` [Compound 3380] the value was 0.01 to 10 nM; for `CC(C)(CNC(=O)C(=O)N1CCOCC1)CNC(=O)c1ccc(Nc2nc(NC3(c4ccc(Cl)cc4)CC3)nc(OCC(F)(F)F)n2)cc1` [Compound 3381], 0.01 to 10 nM; for `CC(C)(CNC(=O)C(=O)Nc1nncs1)CNC(=O)c1ccc(Nc2nc(NC3(c4ccc(Cl)cc4)CC3)nc(OCC(F)(F)F)n2)cc1` [Compound 3382], 0.01 to 10 nM.
On the same count and under the same terms, for `CC(C)(CNC(=O)C(=O)Nc1ccc(C#N)cc1F)CNC(=O)c1ccc(Nc2nc(NC3(c4ccc(Cl)cc4)CC3)nc(OCC(F)(F)F)n2)cc1` [Compound 3383] the value was 0.01 to 10 nM.
On the same count and under the same terms, for `CC(C)(CNC(=O)C(=O)Nc1ccc(Cl)cc1C#N)CNC(=O)c1ccc(Nc2nc(NC3(c4ccc(Cl)cc4)CC3)nc(OCC(F)(F)F)n2)cc1` [Compound 3384] the value was 0.01 to 10 nM; for `CC(C)(CNC(=O)C(=O)Nc1ccccc1C#N)CNC(=O)c1ccc(Nc2nc(NC3(c4ccc(Cl)cc4)CC3)nc(OCC(F)(F)F)n2)cc1` [Compound 3385], 0.01 to 10 nM; for `CC(C)(CNC(=O)C(N)=O)CNC(=O)c1ccc(Nc2nc(NC3(c4ccc(Cl)cc4)CC3)nc(OCC(F)(F)F)n2)c(F)c1` [Compound 3386], 0.01 to 10 nM.
Regarding `COc1cc(Nc2nc(NC3(c4ccc(Cl)cc4)CC3)nc(OCC(F)(F)F)n2)ccc1C(=O)NCC(C)(C)CNC(=O)C(N)=O` [Compound 3387], the EC50 fell in the range of 0.01 to 10 nM.
Same read-out and setting: for `CC(C)(CNC(=O)C(N)=O)CNC(=O)c1ccc(Nc2nc(NC3(c4ccc(Cl)cc4)CC3)nc(OCC(F)(F)F)n2)cc1F` [Compound 3388, N^1-(3-(4-((4-((1-(4-chlorophenyl)cyclopropyl)amino)-6-(2,2,2-trifluoroethoxy)-1,3,5-triazin-2-yl)amino)-2-fluorobenzamido)-2,2-dimethylpropyl)oxalamide] the value was 0.01 to 10 nM; for `CC(C)(CNC(=O)C(N)=O)CNC(=O)c1ccc(Nc2nc(NC3(c4ccc(Cl)cc4)CC3)nc(OCC(F)(F)F)n2)cc1O` [Compound 3389], 0.01 to 10 nM.
The same measure, in the same setting: next, `O=C(NCCCCNC(=O)c1ccc(Nc2nc(NC3(c4ccc(Cl)cc4)CC3)nc(OCC(F)(F)F)n2)cc1)C(=O)Nc1cccc(F)c1` [Compound 3390]: 0.01 to 10 nM; `NC(=O)C(=O)NCCCCNC(=O)c1ccc(Nc2nc(NC3(c4ccc(Cl)cc4)CC3)nc(OCC(F)(F)F)n2)cc1` [Compound 3391]: 0.01 to 10 nM.
For the compound `O=C(NCCCCNC(=O)c1ccc(Nc2nc(NC3(c4ccc(Cl)cc4)CC3)nc(OCC(F)(F)F)n2)cc1)C(=O)NCc1ccc(F)cc1` [Compound 3392], the half-maximal effective concentration (EC50) lay in the range of 0.01 to 10 nM.
Same read-out and setting: for `Cc1ccc(NC(=O)C(=O)NCCCCNC(=O)c2ccc(Nc3nc(NC4(c5ccc(Cl)cc5)CC4)nc(OCC(F)(F)F)n3)cc2)cc1` [Compound 3393] the value was 0.01 to 10 nM; for `Cc1cc(NC(=O)C(=O)NCCCCNC(=O)c2ccc(Nc3nc(NC4(c5ccc(Cl)cc5)CC4)nc(OCC(F)(F)F)n3)cc2)no1` [Compound 3394], 0.01 to 10 nM.
Same read-out and setting: next, `O=C(NCCCCNC(=O)c1ccc(Nc2nc(NC3(c4ccc(Cl)cc4)CC3)nc(OCC(F)(F)F)n2)cc1)C(=O)Nc1ccc(F)cc1` [Compound 3395]: 0.01 to 10 nM; `O=C(NCCCCNC(=O)c1ccc(Nc2nc(NC3(c4ccc(Cl)cc4)CC3)nc(OCC(F)(F)F)n2)cc1)C(=O)Nc1cc(F)cc(F)c1` [Compound 3396]: 0.01 to 10 nM; `O=C(NCCCCNC(=O)c1ccc(Nc2nc(NC3(c4ccc(Cl)cc4)CC3)nc(OCC(F)(F)F)n2)cc1)C(=O)Nc1ccc(F)cc1F` [Compound 3397]: 0.01 to 10 nM.
Still for that read-out and setting: next, `O=C(NCCCCNC(=O)c1ccc(Nc2nc(NC3(c4ccc(Cl)cc4)CC3)nc(OCC(F)(F)F)n2)cc1)C(=O)NC1CCCCC1` [Compound 3398]: 0.01 to 10 nM; `O=C(NCCCCNC(=O)c1ccc(Nc2nc(NC3(c4ccc(Cl)cc4)CC3)nc(OCC(F)(F)F)n2)cc1)C(=O)Nc1nccs1` [Compound 3399]: 0.01 to 10 nM; `CC(C)(CNC(=O)C(=O)Nc1cccc(C(=O)c2cccc(N)c2)c1)CNC(=O)c1ccc(Nc2nc(NC3(c4ccc(Cl)cc4)CC3)nc(OCC(F)(F)F)n2)cc1` [Compound 3400]: 0.01 to 10 nM.
On to `O=C(NCCCCNC(=O)c1ccc(Nc2nc(NC3(c4ccc(Cl)cc4)CC3)nc(OCC(F)(F)F)n2)cc1)C(=O)N1CCCCC1` [Compound 3401], for which the concentration for a half-maximal effect (EC50) was 0.01 to 10 nM.
Still for that read-out and setting: next, `O=C(NCCCCNC(=O)c1ccc(Nc2nc(NC3(c4ccc(Cl)cc4)CC3)nc(OCC(F)(F)F)n2)cc1)C(=O)N1CCc2ccccc2C1` [Compound 3402]: 0.01 to 10 nM; `O=C(NCCCCNC(=O)c1ccc(Nc2nc(NC3(c4ccc(Cl)cc4)CC3)nc(OCC(F)(F)F)n2)cc1)C(=O)Nc1ccccc1` [Compound 3403]: 0.01 to 10 nM.
On the same count and under the same terms, for `CC(C)(CNC(=O)C(=O)NCc1ccc(C(=O)c2ccccc2)cc1)CNC(=O)c1ccc(Nc2nc(NC3(c4ccc(Cl)cc4)CC3)nc(OCC(F)(F)F)n2)cc1` [Compound 3404] the value was 0.01 to 10 nM; for `CC(C)(CNC(=O)C(=O)Nc1ccc(F)cc1Cl)CNC(=O)c1ccc(Nc2nc(NC3(c4ccc(Cl)cc4)CC3)nc(OCC(F)(F)F)n2)cc1` [Compound 3405], 0.01 to 10 nM.
On the same count and under the same terms, for `Cc1ccc(NC(=O)C(=O)N(C)CCCN(C)C(=O)c2ccc(Nc3nc(NC4(c5ccc(Cl)cc5)CC4)nc(OCC(F)(F)F)n3)cc2)cc1` [Compound 3406] the value was 0.01 to 10 nM; for `CCOC(=O)/C=C/c1cccc(NC(=O)C(=O)NCC(C)(C)CNC(=O)c2ccc(Nc3nc(NC4(c5ccc(Cl)cc5)CC4)nc(OCC(F)(F)F)n3)cc2)c1` [Compound 3407], 0.01 to 10 nM.
In the case of `CC(C)(CNC(=O)C(=O)Nc1ccc(C(F)(F)F)cc1F)CNC(=O)c1ccc(Nc2nc(NC3(c4ccc(Cl)cc4)CC3)nc(OCC(F)(F)F)n2)cc1` [Compound 3409], the concentration for a half-maximal effect (EC50) fell in the range of 0.01 to 10 nM.
On the same count and under the same terms, for `CN(CCCN(C)C(=O)c1ccc(Nc2nc(NC3(c4ccc(Cl)cc4)CC3)nc(OCC(F)(F)F)n2)cc1)C(=O)C(=O)Nc1cccc(F)c1` [Compound 3410] the value was 0.01 to 10 nM; for `CN(CCCN(C)C(=O)c1ccc(Nc2nc(NC3(c4ccc(Cl)cc4)CC3)nc(OCC(F)(F)F)n2)cc1)C(=O)C(N)=O` [Compound 3411], 0.01 to 10 nM.
Turning to `CN(CCCN(C)C(=O)c1ccc(Nc2nc(NC3(c4ccc(Cl)cc4)CC3)nc(OCC(F)(F)F)n2)cc1)C(=O)C(=O)Nc1ccc(F)cc1` [Compound 3412], the half-maximal effective concentration (EC50) was in the range of 0.01 to 10 nM.
On to `CN(CCCN(C)C(=O)c1ccc(Nc2nc(NC3(c4ccc(Cl)cc4)CC3)nc(OCC(F)(F)F)n2)cc1)C(=O)C(=O)NCc1ccc(F)cc1` [Compound 3413], for which the EC50 lay within 10 to 1000 nM.
The same measure, in the same setting: for `CC(C)(CNC(=O)C(=O)Nc1c(F)cc(F)cc1F)CNC(=O)c1ccc(Nc2nc(NC3(c4ccc(Cl)cc4)CC3)nc(OCC(F)(F)F)n2)cc1` [Compound 3416] the value was 0.01 to 10 nM; for `Cc1ccc(NC(=O)C(=O)NC(C)(C)CNC(=O)c2ccc(Nc3nc(NC4(c5ccc(Cl)cc5)CC4)nc(OCC(F)(F)F)n3)cc2)cc1` [Compound 3417], 0.01 to 10 nM; for `CC(C)(CNC(=O)c1ccc(Nc2nc(NC3(c4ccc(Cl)cc4)CC3)nc(OCC(F)(F)F)n2)cc1)NC(=O)C(=O)Nc1ccc(F)cc1` [Compound 3418], 0.01 to 10 nM.
